Where “and” joins values, the source holds several entries; their conditions need not be identical. Equal entries are not always repeated. Structures can show the parent of a compound that is named as a salt. Where two headings read alike, the source gives them in different places.
Legend:
[1] = target: human β2-AR (Homo sapiens (Human), UniProt P07550)
[2] = tested on: rat cardiomyocyte; test: Rat cardiomyocyte contractility model; type: cell-based
[3] = target: β1-AR (Rattus norvegicus (Rat), UniProt P18090); conditions: read-out: Ki β1; Ki ± SEM, n=3
[4] = tested on: 1321N1 cells; test: Cell cycle distribution by flow cytometry in 1321N1 cells; conditions: 20 hours
[5] = tested on: U118 cells; conditions: [3H]-thymidine incorporation
[6] = IV 5 mg/kg
[7] = target: β2-AR; conditions: previously reported; cited from earlier work
[8] = tested on: 1321N1 cells; test: Inhibition of mitogenesis, [3H]-thymidine incorporation in 1321N1 cells; type: cell-based, human
[9] = Brain and plasma distribution after single IV administration in rats; type: in vivo, male Sprague-Dawley rats
Description: An overview of the research study design for evaluating the brain-to-plasma distribution of [^3H]
(specific activity 57 Ci/mmol); vehicle was sterile saline, 0.9% sodium chloride, USP. Dose formulations were prepared on the day of the study. The amount of radioactivity in the dose formulation was determined by liquid scintillation. The study lasted for an hour and radioactivity levels in plasma and brain tissue were evaluated at the conclusion of the study. Approximately 5 mls of whole blood was collected. Blood samples were collected via cardiac puncture, transferred into a tube containing K3EDTA as the anticoagulant and kept on wet ice until processed to plasma. To generate plasma, samples were centrifuged within 15 minutes of collection at 2,500 RPM for 15 minutes at room temperature. Plasma was divided equally into three labeled cryovials and stored on ample dry ice until transferred to a freezer set at ≤−20° C. for storage until analysis. Duplicate aliquots were weighed and then combined with scintillation cocktail. The [^3H] radioactivity was determined on a liquid scintillation counter. Brain samples were snap frozen in liquid nitrogen and stored at ≤−70° C. until analysis. Whole brain tissue was homogenized and the weight of the homogenate was determined. Duplicate aliquots from the homogenate were weighed, solubilized and then combined with scintillation cocktail. The [^3H] radioactivity was determined on a liquid scintillation counter.

[10] = rat, IV 5 mg/kg, 5 min, listed as [^3H]—(R,R)-methoxyfenoterol
[11] = rat, IV 5 mg/kg, 60 min, listed as [^3H]—(R,R)-methoxyfenoterol

Sequence of β1-AR (P18090 whole entry): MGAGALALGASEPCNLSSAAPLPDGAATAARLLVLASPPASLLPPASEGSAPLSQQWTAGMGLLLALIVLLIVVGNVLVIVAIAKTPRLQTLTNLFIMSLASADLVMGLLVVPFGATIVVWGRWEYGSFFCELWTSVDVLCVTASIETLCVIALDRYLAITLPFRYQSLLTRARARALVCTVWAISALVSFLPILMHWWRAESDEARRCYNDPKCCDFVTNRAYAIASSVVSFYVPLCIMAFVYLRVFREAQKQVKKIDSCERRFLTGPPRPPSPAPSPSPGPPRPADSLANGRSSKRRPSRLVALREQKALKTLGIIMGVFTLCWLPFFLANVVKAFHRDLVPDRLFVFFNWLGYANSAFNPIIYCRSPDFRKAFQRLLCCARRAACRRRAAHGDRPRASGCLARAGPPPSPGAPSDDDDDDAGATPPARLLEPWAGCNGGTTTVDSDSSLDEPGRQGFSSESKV

In the case of `C[C@H](Cc1cccc2ccccc12)NC[C@@H](O)c1cc(O)cc(O)c1.O=C(O)/C=C/C(=O)O` (racemic) [(S,R)-5, (S,R)-(+)-5-{1-hydroxy-2-[1-methyl-2-(1-naphthyl)ethylamino]ethyl}-1,3-benzenediol Fumarate], the “affinity for the β2-AR weaker than (R,R)-5” value [1] is reported as 7 fold.

Work on `C[C@@H](Cc1ccc(O)cc1)NC[C@@H](O)c1cc(O)cc(O)c1` (racemic) [(S,S)-1, (S,S)-(±)-Fenoterol] yielded an EC50 [2] of 55 µM.

For `O=C(O)/C=C/C(=O)O.Oc1cc(O)cc([C@@H](O)CNCCc2ccccc2)c1` [(R)-7, (R)-(−)-5-(1-Hydroxy-2-phenethylaminoethyl)-1,3-benzenediol fumarate], the “Kiβ2 value higher than (R,S)-3” value ([1]; relative to (R,S)-3) was 32% and the Ki [3] was 42.5 ± 3.47 µM.

In the case of `C[C@H](Cc1ccc(O)cc1)NC[C@H](O)c1cc(O)cc(O)c1` [(R,R)-1, (R,R)-(−)-Fenoterol], the “% Phase Distribution G2” value ([4]; 0.1 nM) is reported as 1.8%, the “% Phase Distribution G1” value ([4]; 10.0 nM) is reported as 76.0% and the “% Phase Distribution G2” value ([4]; 10.0 nM) is reported as 2.1%. For the same molecule, the “% Phase Distribution G2” value ([4]; 1000 nM) was 0.7% and the “IC50 higher than the value calculated in 1321N1 cells” value [5] was 50 fold.

In the case of `COc1ccc(C[C@@H](C)NC[C@H](O)c2cc(O)cc(O)c2)cc1.O=C(O)/C=C/C(=O)O` [(R,R)-2, (R,R)-(−)-1-p-Methoxyphenyl-2-(β-3′,5′-dihydroxy-phenyl-β-oxy)ethylamino-propane Fumarate], the “plasma concentration, individual rat” value ([6]; 300 min, listed as (R,R)-methoxyfenoterol) is reported as 0.06 ug/ml and 0.07 ug/ml (3×) and 0.09 ug/ml, the “systemic exposure (AUC) compared to (R,R)-fenoterol” value ([6]; rat) is reported as “significantly higher” and the B ([6]; rat, two-compartment open model) is reported as 0.3900 µg/mL.

In the case of `C[C@@H](Cc1cccc2ccccc12)NC[C@H](O)c1cc(O)cc(O)c1.O=C(O)/C=C/C(=O)O` [(R,S)-5, (R,S)-(−)-5-{1-hydroxy-2-[1-methyl-2-(1-naphthyl)ethylamino]ethyl}-1,3-benzenediol Fumarate], the “plasma concentration, individual rat” value ([6]; 240 min, listed as (R,S)-naphthylfenoterol, Fumarate) is reported as 0.11 ug/ml (3×) and 0.13 ug/ml (2×), the “plasma concentration, individual rat” value ([6]; 300 min, listed as (R,S)-naphthylfenoterol, Fumarate) is reported as 0.10 ug/ml (2×) and 0.11 ug/ml (2×) and 0.12 ug/ml and the “systemic exposure (AUC) compared to (R,R)-fenoterol” value ([6]; rat) is reported as “significantly higher”. The “plasma concentration, Average” value ([6]; rat, 15 min) was 680 ng/mL, the “plasma concentration, Average” value ([6]; rat, 30 min) was 430 ng/mL and the “plasma concentration, Average” value ([6]; rat, 60 min) was 340 ng/mL. For the same molecule, the “plasma concentration, Average” value ([6]; rat, 120 min) was 240 ng/mL, the “plasma concentration, Average” value ([6]; rat, 240 min) was 120 ng/mL and the “plasma concentration, Average” value ([6]; rat, 300 min) was 110 ng/mL. For the same molecule, the “plasma concentration, Average” value ([6]; rat, 360 min) was 90 ng/mL.

With `Oc1cc(O)cc([C@H](O)CNCCc2ccccc2)c1` [(S)-7, (S)-(+)-5-(1-hydroxy-2-phenethylaminoethyl)-1,3-benzenediol Fumarate] the Ki [3] was 52.2 ± 3.01 µM.

For `CC(C)NCC(O)c1ccc(O)c2[nH]c(=O)ccc12` (stereo not shown) [Compound 50], the “Ki β1/Ki β2 ratio” value [7] is given as 1.7.

In the case of `NCC(O)c1ccc(O)c2[nH]c(=O)ccc12` (stereo not shown) [Compound 51], the “Ki β1/Ki β2 ratio” value [7] is listed as 1.3.

For `Cc1ccc(OCC(O)C(C)NC(C)C)c2c1CCC2` (stereo not shown) [ICI 118-551], the “shift of the (R,R)-fenoterol dose response curve” value ([8]; 1 nM and 3 nM) was “parallel rightward shift”, the “pA2 against inhibitory effect of (R,R)-fenoterol” value ([8]; [3H]-thymidine incorporation, 1321N1 cells) was 8.9 and the “slope of competitive inhibition” value ([8]; [3H]-thymidine incorporation, versus (R,R)-fenoterol) was −1.3±0.3.

In the case of `[3H]COc1ccc(C[C@@H](C)NC[C@H](O)c2cc(O)cc(O)c2)cc1` [[^3H]-(R,R)-methoxyfenoterol, [^3H]—(R,R)-methoxyfenoterol chloride], the “decrease of plasma level” value ([9]; from 5 minutes to 60 minutes) is reported as 62%, the “passage through the blood brain barrier” value ([9]; rat, IV) is reported as “pass through the blood brain barrier” and the “Brain level, Mean” value ([9]; rat, IV 5 mg/kg, 5 min) is reported as 0.92 μg-equiv/g. For the same molecule, the “Percent of Dose in Brain, Mean” value ([9]; rat, IV 5 mg/kg, 5 min) was 0.14%, the “Plasma level, Mean” value ([9]; rat, IV 5 mg/kg, 5 min) was 3.25 μg-equiv/ml and the “Brain level, Mean” value [9, 10] was 0.92±0.10 μg-equiv/g. The “Plasma level, Mean” value [9, 10] was 3.25±0.15 μg-equiv/ml, the “Brain level, Mean” value ([9]; rat, IV 5 mg/kg, 15 min) was 0.80 μg-equiv/g and the “Percent of Dose in Brain, Mean” value ([9]; rat, IV 5 mg/kg, 15 min) was 0.12%. For the same molecule, the “Plasma level, Mean” value ([9]; rat, IV 5 mg/kg, 15 min) was 1.79 μg-equiv/ml, the “Brain level, Mean” value ([9]; rat, IV 5 mg/kg, 30 min) was 0.72 μg-equiv/g and the “Percent of Dose in Brain, Mean” value ([9]; rat, IV 5 mg/kg, 30 min) was 0.11%. The “Plasma level, Mean” value ([9]; rat, IV 5 mg/kg, 30 min) was 1.53 μg-equiv/ml, the “Brain level, Mean” value ([9]; rat, IV 5 mg/kg, 60 min) was 0.70 μg-equiv/g and the “Percent of Dose in Brain, Mean” value ([9]; rat, IV 5 mg/kg, 60 min) was 0.11%. The “Plasma level, Mean” value ([9]; rat, IV 5 mg/kg, 60 min) was 1.24 μg-equiv/ml, the “Brain level, Mean” value [9, 11] was 0.70±0.37 μg-equiv/g and the “Plasma level, Mean” value [9, 11] was 1.24±0.43 μg-equiv/ml. The “percent dose found in the brain, any given animal” value ([9]; rat, IV 5 mg/kg, over 60 minutes) was “no more than 0.17%”.

In the case of (R,R)-TA-2005 [Compound 49], the Ki [7] is given as 0.012 µM and the “Ki β1/Ki β2 ratio” value [7] is given as 53.

From patent US10925840B2, “Use of fenoterol and fenoterol analogues in the treatment of glioblastomas and astrocytomas” (priority 2010, dated 2021)
